Reference: the supplement of paper PMC10307832

How the values were obtained:
Assay in all cases: relative viability (nuclei count vs DMSO), 5 days (fraction); higher = more cells survive
[1] = compound: C1=CC(=CC=C1NC(=S)NNC2=C(C=C(C=C2[N+](=O)[O-])C(F)(F)F)[N+](=O)[O-])F [Kobe2602] + CC(=O)Nc1cccc(-n2c(=O)n(C3CC3)c(=O)c3c(Nc4ccc(I)cc4F)n(C)c(=O)c(C)c32)c1 [Trametinib] (partner 0.02 µM)
In short: (§1)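 Lung cancer cell lines, seeded in 1536-well plates, were treated the following day by pin tool with a single drug or with five library-drug doses (not always all listed) in √10 steps on top of a fixed anchor-drug dose. Cells were fixed and nuclei stained in one step after 5 days, and nuclei were counted. Relative viability is the nuclei count for treated wells divided by that for vehicle wells, reported as medians of duplicate plates.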

[2] = compound: C1=CC(=CC=C1NC(=S)NNC2=C(C=C(C=C2[N+](=O)[O-])C(F)(F)F)[N+](=O)[O-])F [Kobe2602] + C[C@@H](Oc1cc(-c2cnn(C3CCNCC3)c2)cnc1N)c1c(Cl)ccc(F)c1Cl [Crizotinib] (partner 1 µM)
In short: as §1

[3] = compound: COc1cc2nccc(Oc3ccc(NC(=O)C4(C(=O)Nc5ccc(F)cc5)CC4)cc3)c2cc1OC [Cabozantinib] + CS(=O)(=O)N1CCN(Cc2cc3nc(-c4cccc5[nH]ncc45)nc(N4CCOCC4)c3s2)CC1 [Pictilisib] (partner 1 µM)
In short: as §1

[4] = compound: COc1cc2nccc(Oc3ccc(NC(=O)C4(C(=O)Nc5ccc(F)cc5)CC4)cc3)c2cc1OC [Cabozantinib] + O=C(c1cc(Cc2n[nH]c(=O)c3ccccc23)ccc1F)N1CCN(C(=O)C2CC2)CC1 [Olaparib] (partner 8 µM)
In short: as §1

Cell Line | relative viability ([1]; first compound 0.2 µM) | relative viability ([1]; first compound 0.6325 µM) | relative viability ([1]; first compound 2 µM) | relative viability ([1]; first compound 6.325 µM) | relative viability ([1]; first compound 20 µM) | relative viability ([2]; first compound 0.2 µM) | relative viability ([2]; first compound 0.6325 µM) | relative viability ([2]; first compound 2 µM) | relative viability ([2]; first compound 6.325 µM) | relative viability ([2]; first compound 20 µM) | relative viability ([3]; first compound 0.02 µM) | relative viability ([3]; first compound 0.06325 µM) | relative viability ([3]; first compound 0.2 µM) | relative viability ([3]; first compound 0.6325 µM) | relative viability ([3]; first compound 2 µM) | relative viability ([4]; first compound 0.02 µM) | relative viability ([4]; first compound 0.06325 µM) | relative viability ([4]; first compound 0.2 µM) | relative viability ([4]; first compound 0.6325 µM) | relative viability ([4]; first compound 2 µM)
SW 1573 | 0.67 | 0.677 | 0.46 | 0.458 | 0.155 | 0.788 | 0.879 | 0.736 | 0.863 | 0.912 | 0.483 | 0.573 | 0.543 | 0.411 | 0.449 | 0.455 | 0.516 | 0.447 | 0.488 | 0.384
H3255 | 0.621 | 0.629 | 0.549 | 0.632 | 0.588 | 0.906 | 1.12 | 0.802 | 0.839 | 0.874 | 0.473 | 0.572 |  | 0.466 | 0.48 | 0.583 | 0.613 |  | 0.599 | 0.611
EMC-BAC-2 | 0.822 | 0.874 | 0.898 | 0.91 | 0.807 | 0.759 | 0.799 | 0.754 | 0.755 | 0.747 | 0.505 | 0.566 | 0.516 | 0.554 | 0.542 | 0.496 | 0.499 | 0.531 | 0.472 | 0.485
CAL-12T | 0.331 | 0.337 | 0.37 | 0.412 | 0.318 | 0.604 | 0.569 | 0.618 | 0.641 | 0.549 | 0.364 | 0.411 | 0.383 |  | 0.336 | 0.728 | 0.859 | 0.73 | 0.716 | 0.743
NCI-H838 | 0.516 | 0.566 | 0.49 | 0.536 | 0.466 | 0.777 | 0.964 | 0.759 | 0.909 | 0.83 | 0.499 | 0.574 | 0.529 | 0.394 | 0.417 | 0.847 | 0.836 | 0.774 | 0.699 | 0.662
NCI-H1944 | 0.418 | 0.409 | 0.404 | 0.442 | 0.423 | 1.01 | 1.19 | 1.14 | 1.09 | 1.14 |  | 0.367 | 0.369 | 0.34 | 0.342 | 0.426 | 0.413 | 0.404 | 0.401 | 0.52
NCI-H1437 | 0.458 | 0.463 | 0.519 | 0.603 | 0.419 | 0.862 | 0.918 | 0.902 | 0.91 | 0.9 | 0.382 | 0.474 | 0.486 | 0.471 | 0.429 | 0.656 | 0.633 | 0.655 | 0.615 | 0.607
RERF-LC-KJ | 0.839 | 0.836 | 0.864 | 0.802 | 0.525 | 0.781 | 0.839 | 0.836 | 0.81 | 0.756 | 0.501 | 0.646 | 0.578 | 0.567 | 0.485 | 1.06 | 1.05 | 0.96 | 0.824 | 0.921
NCI-H1651 | 0.822 | 0.827 | 0.847 | 0.87 | 0.875 | 0.908 | 0.887 | 0.978 | 0.847 | 0.859 | 0.548 | 0.62 | 0.513 | 0.547 | 0.468 | 0.176 | 0.196 | 0.202 | 0.184 | 0.192
NCI-H1734 | 0.618 | 0.77 | 0.664 | 0.711 | 0.695 | 0.71 | 0.652 | 0.604 | 0.599 | 0.735 | 0.417 | 0.414 | 0.472 | 0.453 | 0.434 | 0.67 | 0.646 | 0.711 | 0.635 | 0.584
NCI-H520 | 0.682 | 0.642 | 0.744 | 0.644 | 0.788 | 0.694 | 0.711 | 0.746 | 0.757 | 0.763 | 0.318 | 0.291 | 0.28 | 0.312 | 0.376 | 0.369 | 0.341 | 0.386 | 0.42 | 0.228
PC-14 | 0.697 | 0.693 | 0.659 | 0.823 | 0.361 | 0.886 | 0.927 | 0.838 | 1.02 | 0.912 | 0.722 | 0.761 |  | 0.76 | 0.689 | 0.254 | 0.33 |  | 0.269 | 0.307
NCI-H2347 | 0.291 | 0.251 | 0.336 | 0.304 | 0.326 | 0.613 | 0.643 | 0.612 | 0.712 | 0.785 | 0.893 | 0.726 | 0.897 | 0.497 | 0.592 | 0.641 | 0.549 | 0.525 | 0.493 | 0.446
NCI-H650 | 0.943 | 0.961 | 1 | 0.993 | 0.845 | 0.683 | 0.692 | 0.854 | 0.849 | 0.636 | 0.765 | 1.02 | 1.02 | 0.774 | 0.868 | 0.38 | 0.373 | 0.398 | 0.386 | 0.35
NCI-H596 | 0.759 | 0.685 | 0.772 | 0.792 | 0.859 | 0.723 | 1.03 | 0.944 | 1.21 | 1 | 0.389 | 0.408 | 0.388 | 0.27 | 0.374 | 0.75 | 0.768 | 0.756 | 0.7 | 0.793
